For series [1], the system named is Hepatotoxicity. Kind of series: Literature-mined compound from Fourches et al multi-species drug-induced liver injury (DILI) dataset, effect in rodents. As to conditions: rodentia.
Series [2] concerns Hepatotoxicity. In words: Literature-mined compound from Fourches et al multi-species drug-induced liver injury (DILI) dataset, effect in humans. As to conditions: human.
For series [3], the system named is Hepatotoxicity. In words: Literature-mined compound from Fourches et al multi-species drug-induced liver injury (DILI) dataset, effect in non-rodents.

Consider `CC[C@H](CC[C@@H](C)[C@H]1CC[C@H]2[C@@H]3CC=C4C[C@@H](O)CC[C@]4(C)[C@H]3CC[C@]12C)C(C)C` [BETA-SITOSTEROL], for which the values for the Hepatotoxicity entry in series [1], in series [2] and in series [3] were “drug-induced liver injury reported”, “drug-induced liver injury reported” and “no drug-induced liver injury reported”, respectively.

Turning to `CC[C@H]1OC(=O)[C@H](C)[C@@H](O[C@H]2C[C@@](C)(OC)[C@@H](O)[C@H](C)O2)[C@H](C)[C@@H](O[C@@H]2O[C@H](C)C[C@H](N(C)C)[C@H]2O)[C@](C)(OC)C[C@@H](C)C(=O)[C@H](C)[C@@H](O)[C@]1(C)O` [CLARITHROMYCIN], the Hepatotoxicity result in series [1] was “drug-induced liver injury reported”; in series [2], “drug-induced liver injury reported”; in series [3], “no drug-induced liver injury reported”.

Consider `Cc1cc2nc3c(=O)[nH]c(=O)nc-3n(C[C@H](O)[C@H](O)[C@H](O)CO)c2cc1C` [RIBOFLAVIN], for which the Hepatotoxicity result in series [1] is “no drug-induced liver injury reported”; in series [2], “drug-induced liver injury reported”; in series [3] it was “no drug-induced liver injury reported”.

As to `C[C@H]1c2cccc(O)c2C(=O)C2=C(O)[C@]3(O)C(=O)C(C(N)=O)=C(O)[C@@H](N(C)C)[C@@H]3[C@@H](O)[C@@H]21.O` [DOXYCYCLINE], the Hepatotoxicity entry in series [1], in series [2] and in series [3] was “drug-induced liver injury reported” in each case.

Take `O=c1[nH]c(=O)c2c[nH]nc2[nH]1` [OXYPURINOL]: the Hepatotoxicity result in series [1] was “drug-induced liver injury reported”; in series [2], “no drug-induced liver injury reported”; in series [3], “no drug-induced liver injury reported”.

On to `C=CCOc1ccccc1OCC(O)CNC(C)C` (stereo unspecified) [OXPRENOLOL], for which the Hepatotoxicity result is recorded as “no drug-induced liver injury reported” in series [1] (Liver), “no drug-induced liver injury reported” in series [2] (Liver) and “drug-induced liver injury reported” in series [3] (Liver).

As for `CCCCCOC(=O)Nc1nc(=O)n([C@@H]2O[C@H](C)[C@@H](O)[C@H]2O)cc1F` [CAPECITABINE], the results for the Hepatotoxicity result in series [1], in series [2] and in series [3] were “drug-induced liver injury reported”, “drug-induced liver injury reported” and “no drug-induced liver injury reported”, respectively.

For the compound `CC(C(=O)O)c1ccc(C(=O)c2cccs2)cc1` (stereo unspecified) [SUPROFEN], the Hepatotoxicity result is on record as “no drug-induced liver injury reported” in series [1], “drug-induced liver injury reported” in series [2] and “no drug-induced liver injury reported” in series [3].

Consider `CC(=O)CCCCn1c(=O)c2c(ncn2C)n(C)c1=O` [PENTOXIFYLLINE], for which the Hepatotoxicity entry in series [1], in series [2] and in series [3] was “drug-induced liver injury reported” each time.

With `NC(=O)c1ncn([C@@H]2O[C@H](CO)[C@@H](O)[C@H]2O)c1N` [ACADESINE], the results for the Hepatotoxicity result in series [1], in series [2] and in series [3] were “drug-induced liver injury reported”, “no drug-induced liver injury reported” and “no drug-induced liver injury reported”, respectively.

With `NC(=O)c1ncn([C@@H]2O[C@H](CO)[C@@H](O)[C@H]2O)n1` [RIBAVIRIN], the values for the Hepatotoxicity entry in series [1], in series [2] and in series [3] were “drug-induced liver injury reported”, “drug-induced liver injury reported” and “no drug-induced liver injury reported”, respectively.

As for `CC1(C)NC(=O)N(c2ccc([N+](=O)[O-])c(C(F)(F)F)c2)C1=O` [NILUTAMIDE], the Hepatotoxicity result is “drug-induced liver injury reported” in series [1] (Liver), “drug-induced liver injury reported” in series [2] (Liver) and “no drug-induced liver injury reported” in series [3] (Liver).

For `C[C@]12CC[C@@H]3c4ccc(O)cc4CC[C@H]3[C@@H]1CC[C@@H]2O` [ESTRADIOL], the Hepatotoxicity result in series [1], in series [2] and in series [3] was “drug-induced liver injury reported” throughout.

For the compound `COc1ccc(C(CN(C)C)C2(O)CCCCC2)cc1` (stereo unspecified) [VENLAFAXINE], the Hepatotoxicity result is listed as “no drug-induced liver injury reported” in series [1], “drug-induced liver injury reported” in series [2] and “no drug-induced liver injury reported” in series [3].

As to `CCO[C@@H](Cc1ccc(OCCN2c3ccccc3Oc3ccccc32)cc1)C(=O)O` [RAGAGLITAZAR], the Hepatotoxicity result in series [1] is “drug-induced liver injury reported”; in series [2] it was “no drug-induced liver injury reported”; in series [3], “no drug-induced liver injury reported”.

Turning to `Nc1ccc(S(=O)(=O)c2ccc(N)cc2)cc1` [DAPSONE], the figures for the Hepatotoxicity result in series [1] (Liver), in series [2] (Liver) and in series [3] (Liver) were “no drug-induced liver injury reported”, “drug-induced liver injury reported” and “no drug-induced liver injury reported”, respectively.

As to `Cc1ccccc1C(OCCN(C)C)c1ccccc1` (stereo unspecified) [ORPHENADRINE], the Hepatotoxicity entry is recorded as “drug-induced liver injury reported” in series [1], “no drug-induced liver injury reported” in series [2] and “no drug-induced liver injury reported” in series [3].

`COc1cc2c(Nc3ccc(Br)cc3F)ncnc2cc1OCC1CCN(C)CC1` [VANDETANIB]: the Hepatotoxicity entry in series [1] was “no drug-induced liver injury reported”; in series [2] it was “drug-induced liver injury reported”; in series [3] it was “no drug-induced liver injury reported”.

For the compound `COc1cccc2c1C(=O)c1c(O)c3c(c(O)c1C2=O)C[C@@](O)(C(=O)CO)C[C@@H]3O[C@H]1C[C@H](N)[C@H](O)[C@H](C)O1` [DOXORUBICIN], the Hepatotoxicity result in series [1], in series [2] and in series [3] was “drug-induced liver injury reported” each time.

Regarding `CCC1(CC)C(=O)NCC(C)C1=O` (stereo unspecified) [METHYPRYLON], the Hepatotoxicity result in series [1] is “drug-induced liver injury reported”; in series [2] it was “no drug-induced liver injury reported”; in series [3], “no drug-induced liver injury reported”.

With `COc1cccc2c1C(=O)c1c(O)c3c(c(O)c1C2=O)C[C@@](O)(C(C)=O)C[C@@H]3O[C@H]1C[C@H](N)[C@H](O)[C@H](C)O1` [DAUNORUBICIN], the figures for the Hepatotoxicity result in series [1], in series [2] and in series [3] were “drug-induced liver injury reported”, “drug-induced liver injury reported” and “no drug-induced liver injury reported”, respectively.

Take `CCC1=C[C@@H]2CN(C1)Cc1c([nH]c3ccccc13)[C@@](C(=O)OC)(c1cc3c(cc1OC)N(C)[C@H]1[C@@](O)(C(=O)OC)[C@H](OC(C)=O)[C@]4(CC)C=CCN5CC[C@]31[C@@H]54)C2` [VINORELBINE]: the results for the Hepatotoxicity result in series [1], in series [2] and in series [3] were “drug-induced liver injury reported”, “drug-induced liver injury reported” and “no drug-induced liver injury reported”, respectively.

Values taken from ChEMBL document CHEMBL1697731, “Cheminformatics analysis of assertions mined from literature that describe drug-induced liver injury in different species” (Chem Res Toxicol, 2010).
